Source: PubChem BioAssay (NCI)
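Five concentrations, 48 hours, 96-well plates. The concentration for 50% growth inhibition is given as GI50. At the TGI there is no net growth.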

Experiments:
Test in all cases: growth of human tumour cells (NCI), 48 h
[1] = system: 786-0 renal
[2] = system: HOP-92 NSCLC
[3] = system: BT-549 breast
[4] = system: T-47D breast
[5] = system: OVCAR-5 ovarian
[6] = system: U251 CNS
[7] = system: OVCAR-4 ovarian
[8] = system: PC-3 prostate
[9] = system: MALME-3M melanoma
[10] = system: HCC-2998 colon

Compound	GI50 [1] [nM]	TGI [1] [µM]	GI50 [2] [nM]	TGI [2] [µM]	GI50 [3] [nM]	TGI [3] [µM]	GI50 [4] [nM]	TGI [4] [µM]	GI50 [5] [µM]	TGI [5] [µM]	GI50 [6] [µM]	TGI [6] [µM]	GI50 [7] [µM]	TGI [7] [µM]	GI50 [8] [nM]	TGI [8] [µM]	GI50 [9] [nM]	TGI [9] [µM]	GI50 [10] [µM]	TGI [10] [µM]
Oc1cn(-c2ccc(Cl)cc2)nc1-c1n[nH]c(=S)n1-c1ccc(F)cc1	28100	> 100	32200	> 100	16500	56.9	> 100000	> 100	32	> 100	15.8	> 100	45.4	> 100	14800	> 100	25900	> 100	–	–
C/C(=C/CCC(C)[C@@H]1CC[C@]2(C)C3=C(CC[C@@]12C)[C@@]1(C)CCC(=O)C(C)(C)[C@@H]1CC3)C(=O)O (stereo not given in full)	1180	2.57	783	2.09	1170	2.45	1140	3.08	1.68	3.29	0.817	2.29	1.27	3.02	1120	2.51	1660	3.5	1.1	2.44
CC(=O)Nc1cccc(C#Cc2cncnc2Nc2ccc(OCc3cccc(F)c3)c(Cl)c2)c1	7660	> 25	4050	> 22.5	11900	> 25	3700	> 25	12.7	> 25	11.8	> 25	7.6	> 25	8490	> 25	12500	> 25	7.94	> 25
O=C(Nc1nc2ccc(S(=O)(=O)Nc3ccc(C4(C(F)(F)F)CC4)cc3)cc2[nH]1)c1cnccn1	2770	12.6	1040	2.4	1910	16.1	3800	23.9	5.52	19.5	4.74	22.5	4.61	19.7	1060	2.47	1660	15.5	3.61	17.7
OCC1OC(OC2(CO)OC(CO)C(O)C2O)C(O)C(O)C1O (stereo not given)	> 100000	> 100	> 100000	> 100	> 100000	> 100	> 100000	> 100	> 100	> 100	> 100	> 100	> 100	> 100	> 100000	> 100	> 100000	> 100	> 100	> 100
Nc1nc(-c2ccccc2)c(CC(=O)O)s1	–	> 100	–	> 100	–	> 100	–	> 100	–	> 100	–	> 100	–	> 100	–	> 100	–	> 100	–	–
N#CN1CC[C@H](C(=O)Nc2ncc(-c3ccccc3)s2)C1	404	2.48	662	4.25	156	0.821	483	3.35	1.39	> 100	0.545	5.15	0.673	5.59	706	2.97	232	1.42	1.09	2.58
CN(C)CCNC(=O)Nc1ccc(N(C)c2ccnc(Nc3ccc(CS(C)(=O)=O)cc3)n2)cc1	> 25000	> 25	6990	> 25	> 25000	> 25	> 25000	> 25	> 25	> 25	> 25	> 25	> 25	> 25	> 25000	> 25	> 25000	> 25	> 25	> 25
OCCNc1nc2ccccc2c2[nH]c3ccccc3c12	407	1.92	943	13.2	1730	6.68	366	2.29	1.13	7.55	0.661	4.31	1.06	4.59	1100	16.9	487	1.91	0.527	1.71
O=c1[nH]c(=S)[nH]c(O)c1/C=C1\C=Nc2ccccc21	6470	22.2	3360	27.3	9920	37.4	34400	> 100	25.7	> 100	2.11	5.87	21.2	> 100	4880	73.3	–	–	11.4	24.8
Cn1cc(-c2ccc3ncc(-c4ccc(CC(=O)Nc5cc(C(C)(C)C)nn5C)cc4)cc3c2)cn1	1280	> 20	2450	> 20	589	2.78	617	5.91	7.83	> 20	2.11	> 20	0.687	5.03	961	> 20	721	> 20	2.73	> 20
O=C(CI)NC(=O)NC(=O)NCc1ccccc1	1980	4.18	1710	6.29	2800	8.17	2480	6.7	2.98	10.8	13.6	27.1	4.42	31	15100	30.7	1570	3.52	10.4	22.9
